Experimental findings from paper PMC9795070, “Customized chitooligosaccharide production—controlling their length via engineering of rhizobial chitin synthases and the choice of expression system” (Frontiers in Bioengineering and Biotechnology, 2022) are described below.

For this test, the target named is T1, NodC_GRH2 (Rhizobium sp. GRH2, UniProt A0A0N7ARR3).
T1 construct: gene nodC; wild-type nodC in shuttle vector pEKEx3, expressed in E. coli BL21 (DE3) and C. glutamicum DSM20300; not purified, membrane-embedded
T1 sequence (A0A0N7ARR3 1-443): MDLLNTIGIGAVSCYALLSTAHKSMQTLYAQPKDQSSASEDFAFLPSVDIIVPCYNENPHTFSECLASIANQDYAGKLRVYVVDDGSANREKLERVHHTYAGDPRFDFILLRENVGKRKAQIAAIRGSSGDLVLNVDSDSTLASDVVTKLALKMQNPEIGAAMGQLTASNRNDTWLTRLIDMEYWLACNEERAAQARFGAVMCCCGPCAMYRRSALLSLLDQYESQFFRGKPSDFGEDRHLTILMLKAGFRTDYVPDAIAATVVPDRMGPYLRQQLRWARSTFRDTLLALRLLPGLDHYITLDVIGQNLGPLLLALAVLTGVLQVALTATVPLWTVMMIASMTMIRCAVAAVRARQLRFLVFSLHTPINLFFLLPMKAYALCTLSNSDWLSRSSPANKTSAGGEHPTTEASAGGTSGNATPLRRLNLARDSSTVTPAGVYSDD
Kind of test: whole-cell production, HILIC-ESI-MS of lysed culture. The format is cell-based. The settings on record: 0.1 mM IPTG, donor UDP-GlcNAc from the host.

On to `CC(=O)N[C@H]1[C@H](O[C@H]2[C@H](O)[C@@H](NC(C)=O)[C@H](O[C@H]3[C@H](O)[C@@H](NC(C)=O)C(O)O[C@@H]3CO)O[C@@H]2CO)O[C@H](CO)[C@@H](O[C@@H]2O[C@H](CO)[C@@H](O[C@@H]3O[C@H](CO)[C@@H](O)[C@H](O)[C@H]3NC(C)=O)[C@H](O)[C@H]2NC(C)=O)[C@@H]1O` (some centres unmarked) [A5, pentamer], for which the “whole-cell production, HILIC-ESI-MS of lysed culture” value (E. coli BL21 (DE3), 30 °C) is given as “the main product for wildtype NodC_GRH2 throughout the whole cultivation is A5”.

`CC(=O)N[C@H]1[C@H](O[C@H]2[C@H](O)[C@@H](NC(C)=O)[C@H](O[C@H]3[C@H](O)[C@@H](NC(C)=O)C(O)O[C@@H]3CO)O[C@@H]2CO)O[C@H](CO)[C@@H](O[C@@H]2O[C@H](CO)[C@@H](O[C@@H]3O[C@H](CO)[C@@H](O[C@@H]4O[C@H](CO)[C@@H](O)[C@H](O)[C@H]4NC(C)=O)[C@H](O)[C@H]3NC(C)=O)[C@H](O)[C@H]2NC(C)=O)[C@@H]1O` (some centres unmarked) [A6, hexamer]: the “whole-cell production, HILIC-ESI-MS of lysed culture” value (C. glutamicum DSM20300, 30 °C) is “C. glutamicum expressing the same wildtype enzyme produces predominantly A6”.
